Assay results from patent publication US3956338A, “4,6-Dibromo-5-hydroxy-2-pyridine nitrile compounds and method of preparation” (The Dow Chemical Company, priority 1975, dated 1976).

Legend:
[1] = tested on: Bindweed; assay: Comparison with BROMINIL as post-emergent herbicide; format: in vivo; conditions: post-emergence; post-emergent spray, 0.2% Tween 20, 300 gallons per acre; read-out: Concentration Required for adequate control
Procedure: (§1) All plants were grown in a greenhouse and sprayed with the test solution when they attained 1 to 2 inches in height. The test solutions were made up in water, using a 0.2% Tween 20 surfactant (polyoxyethylene derivative of a fatty acid partial ester of sorbitol) and were applied in a total spray volume equivalent to 300 gallons per acre.

[2] = tested on: Buckwheat; assay: as above; format: in vivo; conditions: post-emergence; post-emergent spray, 0.2% Tween 20, 300 gallons per acre; read-out: Concentration Required for adequate control
Procedure: as §1

[3] = tested on: Morning Glory; assay: as above; format: in vivo; conditions: Ipomoea, post-emergence; post-emergent spray, 0.2% Tween 20, 300 gallons per acre; read-out: Concentration Required for adequate control
Procedure: as §1

[4] = tested on: Wheat; assay: as above; format: in vivo; conditions: Triticum aestivum, post-emergence; post-emergent spray, 0.2% Tween 20, 300 gallons per acre; read-out: Concentration: minimum required for injury of wheat
Procedure: as §1

[5] = tested on: Wild Mustard; assay: as above; format: in vivo; conditions: Brassica, post-emergence; post-emergent spray, 0.2% Tween 20, 300 gallons per acre; read-out: Concentration Required for adequate control
Procedure: as §1

[6] = tested on: Wild Oats; assay: as above; format: in vivo; conditions: for minimal effective concentration: Avena fatua, post-emergence, post-emergent spray, 0.2% Tween 20, 300 gallons per acre, read-out: Concentration Required for adequate control
Procedure: as §1

[7] = tested on: Barnyard Grass; assay: Post-emergent herbicide evaluation (Table I); format: in vivo; conditions: 4000 ppm, 2 weeks after treatment
Procedure: (§2) Pots are filled with a sandy soil, and plants of any species considered appropriate (such as pigweed, field bindweed, velvet leaf, cotton, barnyard grass, foxtail, wild oat, and crabgrass) are grown to an average height of 2 to 4 inches. Plants are then sprayed to run-off with an aqueous solution or dispersion containing the test chemical at the desired concentration. The plants are maintained in the greenhouse and are sub-irrigated as necessary. Final readings are made 2 weeks after treatment. Readings represent the percent kill or control of growth on the treated plants when compared to untreated plants, with 0 = no visible effects and 100 = all plants dead. Compounds found active are subsequently tested over a range of rates which are less than the initial rate. The procedure is the same as described above except that additional species (such as soybean, corn, wheat, ragweed, Johnson grass, etc.) are used. Additionally, test chemicals may be applied to the soil surface by drenching or as a solid to preclude contact with foliage. If foliage is sprayed, the pots are subsequently maintained by sub-irrigation; if chemical application is made to the soil, the pots are top-watered.

[8] = tested on: Beans; assay: Post-emergent herbicide evaluation (Table I); format: in vivo; conditions: 4000 ppm, 2 weeks after treatment
Procedure: as §2

[9] = tested on: Corn; assay: Post-emergent herbicide evaluation (Table I); format: in vivo; conditions: 4000 ppm, 2 weeks after treatment
Procedure: as §2

[10] = tested on: Cotton; assay: Post-emergent herbicide evaluation (Table I); format: in vivo; conditions: 4000 ppm, 2 weeks after treatment
Procedure: as §2

[11] = tested on: Crabgrass; assay: Post-emergent herbicide evaluation (Table I); format: in vivo; conditions: 4000 ppm, 2 weeks after treatment
Procedure: as §2

[12] = tested on: Cultured Rice; assay: Post-emergent herbicide evaluation (Table I); format: in vivo; conditions: 4000 ppm, 2 weeks after treatment
Procedure: as §2

[13] = tested on: German Millet; assay: Post-emergent herbicide evaluation (Table I); format: in vivo; conditions: 4000 ppm, 2 weeks after treatment
Procedure: as §2

[14] = tested on: Morning Glory; assay: Post-emergent herbicide evaluation (Table I); format: in vivo; conditions: 2000 ppm, 2 weeks after treatment
Procedure: as §2

[15] = tested on: Pigweeds; assay: Post-emergent herbicide evaluation (Table I); format: in vivo; conditions: 1000 ppm, 2 weeks after treatment
Procedure: as §2

[16] = tested on: Rape; assay: Post-emergent herbicide evaluation (Table I); format: in vivo; conditions: 1000 ppm, 2 weeks after treatment
Procedure: as §2

[17] = tested on: Sorghum/Milo; assay: Post-emergent herbicide evaluation (Table I); format: in vivo; conditions: 4000 ppm, 2 weeks after treatment
Procedure: as §2

[18] = tested on: Soybeans; assay: Post-emergent herbicide evaluation (Table I); format: in vivo; conditions: 4000 ppm, 2 weeks after treatment
Procedure: as §2

[19] = tested on: Velvet Leaf; assay: Post-emergent herbicide evaluation (Table I); format: in vivo; conditions: 2 weeks after treatment
Procedure: as §2

[20] = tested on: White Winter Wheat; assay: Post-emergent herbicide evaluation (Table I); format: in vivo; conditions: 2000 ppm, 2 weeks after treatment
Procedure: as §2

[21] = tested on: Wild Oats; assay: Post-emergent herbicide evaluation (Table I); format: in vivo; conditions: 4000 ppm, 2 weeks after treatment
Procedure: as §2

[22] = tested on: Yellow Foxtail; assay: Post-emergent herbicide evaluation (Table I); format: in vivo; conditions: 4000 ppm, 2 weeks after treatment
Procedure: as §2

[23] = tested on: Barnyard Grass; assay: Pre-emergent herbicide evaluation (Table II); format: in vivo; conditions: 10 Lbs/Acre, about 2 weeks after treatment
Text: (§3) Pots are filled to within 1 inch of the top with a medium-textured soil and seeds of any species considered appropriate (such as pigweed, field bindweed, velvet leaf, cotton, barnyard grass, foxtail, wild oat and crabgrass) are sown in their appropriate area. The seeds are then covered with a 1/2 inch layer of a sandy soil and test chemicals formulated at the desired concentration are drenched onto the soil surface in sufficient volume to wet the top 11/2 to 2 inches of soil. The pots are maintained in the greenhouse and are top-watered as necessary. Final readings are made about 2 weeks after treatment, the exact time depending upon the rate of plant growth. Readings are based on the germination and the growth of treated plants compared with that of untreated plants. Readings of 0% = no visible effects and 100% = all plants dead.
(§4) Compounds found active are subsequently tested over a range of rates which are less than the initial rate. The procedure is the same as described above with the exceptions that the seeds of appropriate species (such as soybean, corn, wheat, ragweed, Johnson grass, etc.) are covered with the same medium-textured soil used to fill the pot, and the chemicals are sprayed onto the soil surface at the desired rate in sufficient volume to cover and wet the soil surface. The pots are maintained, top-watered, and graded as described above.

[24] = tested on: Beans; assay: Pre-emergent herbicide evaluation (Table II); format: in vivo; conditions: 10 Lbs/Acre, about 2 weeks after treatment
Text: as §3, §4

[25] = tested on: Bindweed; assay: Pre-emergent herbicide evaluation (Table II); format: in vivo; conditions: 10 Lbs/Acre, about 2 weeks after treatment
Text: as §3, §4

[26] = tested on: Corn; assay: Pre-emergent herbicide evaluation (Table II); format: in vivo; conditions: 4 Lbs/Acre, about 2 weeks after treatment
Text: as §3, §4

[27] = tested on: Cotton; assay: Pre-emergent herbicide evaluation (Table II); format: in vivo; conditions: about 2 weeks after treatment
Text: as §3, §4

[28] = tested on: Crabgrass; assay: Pre-emergent herbicide evaluation (Table II); format: in vivo; conditions: 10 Lbs/Acre, about 2 weeks after treatment
Text: as §3, §4

[29] = tested on: Cultured Rice; assay: Pre-emergent herbicide evaluation (Table II); format: in vivo; conditions: about 2 weeks after treatment
Text: as §3, §4

[30] = tested on: German Millet; assay: Pre-emergent herbicide evaluation (Table II); format: in vivo; conditions: 2 Lbs/Acre, about 2 weeks after treatment
Text: as §3, §4

[31] = tested on: Johnson Grass; assay: Pre-emergent herbicide evaluation (Table II); format: in vivo; conditions: 4 Lbs/Acre, about 2 weeks after treatment
Text: as §3, §4

[32] = tested on: Morning Glory; assay: Pre-emergent herbicide evaluation (Table II); format: in vivo; conditions: 4 Lbs/Acre, about 2 weeks after treatment
Text: as §3, §4

[33] = tested on: Pigweeds; assay: Pre-emergent herbicide evaluation (Table II); format: in vivo; conditions: 2 Lbs/Acre, about 2 weeks after treatment
Text: as §3, §4

[34] = tested on: Rape; assay: Pre-emergent herbicide evaluation (Table II); format: in vivo; conditions: 4 Lbs/Acre, about 2 weeks after treatment
Text: as §3, §4

[35] = tested on: Sorghum/Milo; assay: Pre-emergent herbicide evaluation (Table II); format: in vivo; conditions: about 2 weeks after treatment
Text: as §3, §4

[36] = tested on: Soybean; assay: Pre-emergent herbicide evaluation (Table II); format: in vivo; conditions: 4 Lbs/Acre, about 2 weeks after treatment
Text: as §3, §4

[37] = tested on: Velvet Leaf; assay: Pre-emergent herbicide evaluation (Table II); format: in vivo; conditions: 10 Lbs/Acre, about 2 weeks after treatment
Text: as §3, §4

[38] = tested on: White Winter Wheat; assay: Pre-emergent herbicide evaluation (Table II); format: in vivo; conditions: 4 Lbs/Acre, about 2 weeks after treatment
Text: as §3, §4

[39] = tested on: Wild Oats; assay: Pre-emergent herbicide evaluation (Table II); format: in vivo; conditions: about 2 weeks after treatment
Text: as §3, §4

[40] = tested on: Yellow Foxtail; assay: Pre-emergent herbicide evaluation (Table II); format: in vivo; conditions: 10 Lbs/Acre, about 2 weeks after treatment
Text: as §3, §4

[41] = tested on: plants; assay: Comparison with BROMINIL as post-emergent herbicide, overall; format: in vivo; conditions: Example 2(C)
Procedure: as §1

[42] = tested on: weeds; assay: Post- and pre-emergent herbicide evaluation, weeds overall; format: in vivo; conditions: Examples 2(A) and 2(B)
Procedure: as §2, with “The procedure is the same as described above except that additional species (such as soybean, corn, wheat, ragweed, Johnson grass, etc.) are used. Additionally, test chemicals may be applied to the soil surface by drenching or as a solid to preclude contact with foliage. If foliage is sprayed, the pots are subsequently maintained by sub-irrigation; if chemical application is made to the soil, the pots are top-watered.” left out
(§5) Pots are filled to within 1 inch of the top with a medium-textured soil and seeds of any species considered appropriate (such as pigweed, field bindweed, velvet leaf, cotton, barnyard grass, foxtail, wild oat and crabgrass) are sown in their appropriate area. […] Final readings are made about 2 weeks after treatment, the exact time depending upon the rate of plant growth. Readings are based on the germination and the growth of treated plants compared with that of untreated plants. Readings of 0% = no visible effects and 100% = all plants dead. […]

[43] = tested on: crop plants; assay: Post- and pre-emergent herbicide evaluation, crop plants overall; format: in vivo; conditions: at concentrations effective for weed control
Procedure: as §2, with “The procedure is the same as described above except that additional species (such as soybean, corn, wheat, ragweed, Johnson grass, etc.) are used. Additionally, test chemicals may be applied to the soil surface by drenching or as a solid to preclude contact with foliage. If foliage is sprayed, the pots are subsequently maintained by sub-irrigation; if chemical application is made to the soil, the pots are top-watered.” left out
as §5

[44] = tested on: two-spotted spider mites; assay: Standard screening test, control of two-spotted spider mites; format: in vivo; conditions: 400 parts per million
[45] = tested on: Staphylococcus aureus; assay: Standard screening test, growth inhibition of microorganism; format: cell-based; conditions: 500 ppm
[46] = Solubility; format: physicochemical

N#Cc1cc(Br)c(O)c(Br)c1 [BROMINIL, 3,5-dibromo-4-hydroxy benzonitrile]
minimal effective concentration [1]: 500 µg/mL | minimal effective concentration [2]: 16 µg/mL | minimal effective concentration [3]: 16 µg/mL | minimal effective concentration [4]: 4000 µg/mL | minimal effective concentration [5]: 16 µg/mL | minimal effective concentration [6]: > 4000 µg/mL

N#Cc1cc(Br)c(O)c(Br)n1 [4,6-dibromo-5-hydroxy-2-pyridine nitrile]
Percent Control [7]: 75% | Percent Control [8]: 70% | Percent Control [9]: 0% | Percent Control [10]: 100% | Percent Control [11]: 100% | Percent Control [12]: 0% | Percent Control [13]: 85% | Percent Control [14]: 100% | Percent Control [15]: 100% | Percent Control [16]: 100% | Percent Control [17]: 0% | Percent Control [18]: 0% | Percent Control ([19]; 1000 ppm): 85% | Percent Control ([19]; 2000 ppm): 100% | Percent Control [20]: 0% | Percent Control [21]: 65% | Percent Control [22]: 70% | % Control [23]: 40% | % Control [24]: 60% | % Control [25]: 25% | % Control [26]: 20% | % Control ([27]; 4 Lbs/Acre): 0% | % Control ([27]; 10 Lbs/Acre): 100% | % Control [28]: 50% | % Control ([29]; 2 Lbs/Acre): 0% | % Control ([29]; 4 Lbs/Acre): 15% | % Control [30]: 40% | % Control [31]: 0% | % Control [32]: 15% | % Control [33]: 100% | % Control [34]: 25% | % Control ([35]; 2 Lbs/Acre): 0% | % Control ([35]; 4 Lbs/Acre): 15% | % Control [36]: 0% | % Control [37]: 40% | % Control [38]: 0% | % Control ([39]; 4 Lbs/Acre): 70% | % Control ([39]; 10 Lbs/Acre): 85% | % Control [40]: 80% | minimal effective concentration [1]: 4000 µg/mL | minimal effective concentration [2]: 250 µg/mL | minimal effective concentration [3]: 1000 µg/mL | minimal effective concentration [4]: 2000 µg/mL | minimal effective concentration [5]: 62 µg/mL | minimal effective concentration [6]: 500 µg/mL | times more active than BROMINIL against wild oats ([6]; post-emergent, relative to BROMINIL): 8 times | general activity relative to BROMINIL [41]: generally less active than BROMINIL | herbicidal activity against weeds [42]: moderately active herbicide against weeds | activity against most crop plants [43]: low or nil activity against most crop plants | control of two-spotted spider mites [44]: 100% | growth inhibition of Staphylococcus aureus [45]: inhibited growth | solubility in the common organic solvents ([46]; common organic solvents): soluble in the common organic solvents | solubility in water ([46]; water): essentially insoluble in water
